Test results as given in patent publication US9663513B2, “Pyrimidine PDE10 inhibitors” (Merck Sharp & Dohme Corp., priority 2012, dated 2017).

Target: human PDE10A2 (Homo sapiens (Human), UniProt Q9Y233)
Assay: PDE10 fluorescence polarization (IMAP FP) inhibition assay
Format: biochemical
Conditions: human PDE10A2 from transfected AD293 cells; FAM-labeled cAMP 50 nM; apparent inhibition constant; read-out: PDE10A Ki
Procedure: The activity of the compounds in accordance with the present invention as PDE10 inhibitors may be readily determined without undue experimentation using a fluorescence polarization (FP) methodology that is well known in the art (Huang, W., et al., J. Biomol Screen, 2002, 7: 215).
In a typical experiment the PDE10 inhibitory activity of the compounds of the present invention was determined in accordance with the following experimental method. PDE10A2 was amplified from human fetal brain cDNA (Clontech, Mountain View, Calif.) using a forward primer corresponding to nucleotides 56-77 of human PDE10A2 (Accession No. AF127480, Genbank Identifier 4894716), containing a Kozak consensus sequence, and a reverse primer corresponding to nucleotides 2406-2413 of human PDE10A2 (Accession No. AF127480, Genbank Identifier 4894716). Amplification with Easy-A polymerase (Stratagene, La Jolla, Calif.) was 95° C. for 2 minutes followed by thirty three cycles of 95° C. for 40 seconds, 55° C. for 30 seconds, and 72° C. for 2 minutes 48 seconds. Final extension was 72° C. for 7 minutes. The PCR product was TA cloned into pcDNA3.2-TOPO (Invitrogen, Carlsbad, Calif.) according to standard protocol. AD293 cells with 70-80% confluency were transiently transfected with human PDE10A2/pcDNA3.2-TOPO using Lipofectamine 2000 according to manufacturer specifications (Invitrogen, Carlsbad, Calif.). Cells were harvested 48 hours post-transfection and lysed by sonication (setting 3, 10×5 sec pulses) in a buffer containing 20 mM HEPES, 1 mM EDTA and protease inhibitor cocktail (Roche). Lysate was collected by centrifugation at 75,000×g for 20 minutes. Supernatant containing the cytoplasmic fraction was used for evaluation of PDE10A2 activity. The fluorescence polarization assay for cyclic nucleotide phosphodiesterases was performed using an IMAP® FP kit supplied by Molecular Devices, Sunnyvale, Calif. (product # R8139). IMAP® technology has been applied previously to phosphodiesterase assays (Huang, W., et al., J. Biomol Screen, 2002, 7: 215). Assays were performed at room temperature in 384-well microtiter plates with an incubation volume of 20.2 μL. Solutions of test compounds were prepared in DMSO and serially diluted with DMSO to yield 8 μL of each of 10 solutions differing by 3-fold in concentration, at 32 serial dilutions per plate. […] 0% of inhibition is determined by using DMSO (1% final concentrations).
A Labcyte Echo 555 (Labcyte, Sunnyvale, Calif.) is used to dispense 200 nL from each well of the titration plate to the 384 well assay plate. A solution of enzyme (1/1600 dilution from aliquots; sufficient to produce 20% substrate conversion) and a separate solution of FAM-labeled cAMP PDE from Molecular Devices (product # R7506), at a final concentration of 50 nM are made in the assay buffer (10 mM Tris HCl, pH 7.2, 10 mM MgCl2, 0.05% NaN3 0.01% Tween-20, and 1 mM DTT). The enzyme and the substrate are then added to the assay plates in two consecutive additions of 10 μL, and then shaken to mix. The reaction is allowed to proceed at room temperature for 30 minutes. […] The enzymatic reaction is stopped by addition of 60 μL of the binding solution to each well of the assay plates and the plates are sealed and shaken for 10 seconds. The plate was incubated at room temperature for at least one hour prior to determining the fluorescence polarization (FP). The parallel and perpendicular fluorescence of each well of the plate was measured using a Perkin Elmer EnVision™ plate reader (Waltham, Mass.).
Fluorescence polarization (mP) was calculated from the parallel (S) and perpendicular (P) fluorescence of each sample well and the analogous values for the median control well, containing only substrate (So and Po), using the following equation: Polarization(mP)=1000*(S/So−P/Po)/(S/So+P/Po).
Dose-inhibition profiles for each compound were characterized by fitting the mP data to a four-parameter equation given below.

Sequence of human PDE10A2 (Q9Y233 267-1055): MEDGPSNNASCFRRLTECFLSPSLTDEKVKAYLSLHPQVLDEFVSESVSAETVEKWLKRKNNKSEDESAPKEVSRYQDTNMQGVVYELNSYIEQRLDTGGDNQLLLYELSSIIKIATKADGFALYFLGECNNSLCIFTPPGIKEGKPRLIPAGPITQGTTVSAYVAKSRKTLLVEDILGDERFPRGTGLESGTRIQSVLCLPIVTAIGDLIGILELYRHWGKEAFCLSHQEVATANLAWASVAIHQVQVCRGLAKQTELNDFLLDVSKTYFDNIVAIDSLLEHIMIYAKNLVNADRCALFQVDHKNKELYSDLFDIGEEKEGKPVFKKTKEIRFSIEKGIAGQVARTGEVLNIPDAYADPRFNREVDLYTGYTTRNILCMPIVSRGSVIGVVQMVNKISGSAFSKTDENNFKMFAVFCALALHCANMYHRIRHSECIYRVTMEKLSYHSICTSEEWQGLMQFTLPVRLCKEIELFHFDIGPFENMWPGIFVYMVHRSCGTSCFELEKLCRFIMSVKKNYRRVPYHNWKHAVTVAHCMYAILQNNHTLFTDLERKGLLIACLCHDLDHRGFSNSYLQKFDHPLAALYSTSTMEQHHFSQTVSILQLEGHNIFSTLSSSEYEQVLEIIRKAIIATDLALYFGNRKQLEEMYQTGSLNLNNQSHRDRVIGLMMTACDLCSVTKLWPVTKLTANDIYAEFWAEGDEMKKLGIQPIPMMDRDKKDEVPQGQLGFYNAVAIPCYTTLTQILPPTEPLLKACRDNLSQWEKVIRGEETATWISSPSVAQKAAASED

Ki [nM] | SMILES
0.02 | Cc1ncc(-c2ccncc2)c(OC[C@H]2C[C@@H]2c2ccc3ccccc3n2)n1 (single isomer, unassigned) [Example 26]
0.93 | Cc1ncc(-c2ccncc2)c(OC[C@H]2C[C@@H]2c2ccc3ccccc3n2)n1 (single isomer, unassigned) [Example 27]
0.1 | COc1ccc(-c2cnc(C)nc2OC[C@H]2C[C@@H]2c2ccc3ccccc3n2)cc1 (single isomer, unassigned) [Example 28]
1.66 | COc1ccc(-c2cnc(C)nc2OC[C@H]2C[C@@H]2c2ccc3ccccc3n2)cc1 (single isomer, unassigned) [Example 29]
0.37 | CCc1ccc(-c2cnc(C)nc2OC[C@H]2C[C@@H]2c2ccc3ccccc3n2)cc1 (single isomer, unassigned) [Example 30]
7.95 | CCc1ccc(-c2cnc(C)nc2OC[C@H]2C[C@@H]2c2ccc3ccccc3n2)cc1 (single isomer, unassigned) [Example 31]
0.01 | Cc1ncc(-c2ccc(C(C)O)cc2)c(OC[C@H]2C[C@@H]2c2ccc3ccccc3n2)n1 (single isomer, unassigned) [Example 34]
1.05 | Cc1ncc(-c2ccc(C(C)O)cc2)c(OC[C@H]2C[C@@H]2c2ccc3ccccc3n2)n1 (single isomer, unassigned) [Example 35]
0.03 | Cc1ncc(-c2ccc(CO)cc2)c(OC[C@H]2C[C@@H]2c2ccc3ccccc3n2)n1 (single isomer, unassigned) [Example 38]
0.87 | Cc1ncc(-c2ccc(CO)cc2)c(OC[C@H]2C[C@@H]2c2ccc3ccccc3n2)n1 (single isomer, unassigned) [Example 39]
0.04 | CCOc1cccc(-c2cnc(C)nc2OC[C@H]2C[C@@H]2c2ccc3ccccc3n2)c1 (single isomer, unassigned) [Example 40, 2,2,2-trifluoroacetate]
5.08 | CCOc1cccc(-c2cnc(C)nc2OC[C@H]2C[C@@H]2c2ccc3ccccc3n2)c1 (single isomer, unassigned) [Example 41, 2,2,2-trifluoroacetate]
0.06 | Cc1ccc([C@H]2C[C@@H]2COc2nc(C)ncc2-c2ccc(C(C)(C)O)nc2)nc1 (single isomer, unassigned) [Example 46]
1.75 | COc1ccc([C@H]2C[C@@H]2COc2nc(C)ncc2-c2ccc([S+](C)[O-])nc2)nc1 (single isomer, unassigned) [Example 64]
2.62 | COc1ccc([C@H]2C[C@@H]2COc2nc(C)ncc2-c2ccc([S+](C)[O-])nc2)nc1 (single isomer, unassigned) [Example 65]
0.02 | Cc1ncc(-c2cnc3[nH]ncc3c2)c(OC[C@H]2C[C@@H]2c2ccc3ccccc3n2)n1 (single isomer, unassigned) [Example 151]
1.78 | Cc1ncc(-c2cnc3[nH]ncc3c2)c(OC[C@H]2C[C@@H]2c2ccc3ccccc3n2)n1 (single isomer, unassigned) [Example 152]

Ki [nM] | SMILES
0.51 | Cc1ncc(-c2ccc(C(C)(C)O)nc2)c(OC[C@H]2C[C@@H]2c2ncccc2C)n1 (single isomer, unassigned) [Example 173]
8.42 | Cc1ncc(-c2ccc(C(C)(C)O)nc2)c(OC[C@H]2C[C@@H]2c2ncccc2C)n1 (single isomer, unassigned) [Example 174]
0.2 | Cc1cccc([C@H]2C[C@@H]2COc2nc(C)ncc2-c2ccc(C(C)(C)O)nc2)n1 (single isomer, unassigned) [Example 175]
0.38 | Cc1ccnc([C@H]2C[C@@H]2COc2nc(C)ncc2-c2ccc(C(C)(C)O)nc2)c1 (single isomer, unassigned) [Example 177]
35.6 | Cc1ccnc([C@H]2C[C@@H]2COc2nc(C)ncc2-c2ccc(C(C)(C)O)nc2)c1 (single isomer, unassigned) [Example 178]
5.95 | CCc1ccc([C@H]2C[C@@H]2COc2nc(C)ncc2-c2ccc(C(C)(C)O)nc2)nc1 (single isomer, unassigned) [Example 180]
0.05 | CCc1ccc([C@H]2C[C@@H]2COc2nc(C)ncc2-c2ccc(C(C)(C)O)nc2)nc1 (single isomer, unassigned) [Example 181]
2.44 | Cc1ccc([C@H]2C[C@@H]2COc2nc(C)ncc2-c2ccc(C)cc2C)nc1 [Example 2, 5-(2,4-dimethylphenyl)-2-methyl-4-(((1S,2S)-2-(5-methylpyridin-2-yl)cyclopropyl)methoxy)pyrimidine]
2.14 | Cc1ccc([C@H]2C[C@@H]2COc2nc(C)ncc2-c2cccc(C(C)C)c2)nc1 [Example 4, 5-(3-isopropylphenyl)-2-methyl-4-(((1S,2S)-2-(5-methylpyridin-2-yl)cyclopropyl)methoxy)pyrimidine]
0.46 | Cc1ccc([C@H]2C[C@@H]2COc2nc(C)ncc2-c2cc(F)cc(F)c2)nc1 [Example 7, 5-(3,5-difluorophenyl)-2-methyl-4-(((1S,2S)-2-(5-methylpyridin-2-yl)cyclopropyl)methoxy)pyrimidine]
3.24 | CCc1ccccc1-c1cnc(C)nc1OC[C@H]1C[C@@H]1c1ccc(C)cn1 [Example 8]
1.13 | Cc1ccc([C@H]2C[C@@H]2COc2nc(C)ncc2-c2ccc(F)c(C)c2)nc1 [Example 9, 5-(4-fluoro-3-methylphenyl)-2-methyl-4-(((1S,2S)-2-(5-methylpyridin-2-yl)cyclopropyl)methoxy)pyrimidine]
5.71 | Cc1ccc([C@H]2C[C@@H]2COc2nc(C)ncc2-c2ccc(C(F)(F)F)cc2)nc1 [Example 10, 2-methyl-4-(((1S,2S)-2-(5-methylpyridin-2-yl)cyclopropyl)methoxy)-5-(4-(trifluoromethyl)phenyl)pyrimidine]
4.43 | Cc1ccc([C@H]2C[C@@H]2COc2nc(C)ncc2-c2c(C)cccc2C)nc1 [Example 11, 5-(2,6-dimethylphenyl)-2-methyl-4-(((1S,2S)-2-(5-methylpyridin-2-yl)cyclopropyl)methoxy)pyrimidine]
1.11 | Cc1ccc([C@H]2C[C@@H]2COc2nc(C)ncc2-c2cccc(OC(F)(F)F)c2)nc1 [Example 12, 2-methyl-4-(((1S,2S)-2-(5-methylpyridin-2-yl)cyclopropyl)methoxy)-5-(3-(trifluoromethoxy)phenyl)pyrimidine]
0.7 | Cc1ccc([C@H]2C[C@@H]2COc2nc(C)ncc2-c2cc(C)ccc2C)nc1 [Example 13, 5-(2,5-dimethylphenyl)-2-methyl-4-(((1S,2S)-2-(5-methylpyridin-2-yl)cyclopropyl)methoxy)pyrimidine]
3.1 | Cc1ccc([C@H]2C[C@@H]2COc2nc(C)ncc2-c2ccccc2C(F)(F)F)nc1 [Example 14, 2-methyl-4-(((1S,2S)-2-(5-methylpyridin-2-yl)cyclopropyl)methoxy)-5-(2-(trifluoromethyl)phenyl)pyrimidine]

SMILES | Ki [nM]
Cc1ccc([C@H]2C[C@@H]2COc2nc(C)ncc2-c2cccc(OC(C)C)c2)nc1 [Example 3, 5-(3-isopropoxyphenyl)-2-methyl-4-(((1S,2S)-2-(5-methylpyridin-2-yl)cyclopropyl)methoxy)pyrimidine] | 0.3
Cc1ccc([C@H]2C[C@@H]2COc2nc(C)ncc2-c2ccccc2OC(F)(F)F)nc1 [Example 5] | 3.15
Cc1ccc([C@H]2C[C@@H]2COc2nc(C)ncc2-c2c(F)cccc2F)nc1 [Example 6, 5-(2,6-difluorophenyl)-2-methyl-4-(((1S,2S)-2-(5-methylpyridin-2-yl)cyclopropyl)methoxy)pyrimidine] | 1.42
